In patent US20160120863A1, “SLC2A TRANSPORTER INHIBITORS” (IOMET PHARMA LTD., priority 2013, published 2016):

Biological target: T1, human GLUT1 (Homo sapiens, UniProt P11166)
T1 construct: expressed in transfected cells
T1 sequence (P11166 1-492): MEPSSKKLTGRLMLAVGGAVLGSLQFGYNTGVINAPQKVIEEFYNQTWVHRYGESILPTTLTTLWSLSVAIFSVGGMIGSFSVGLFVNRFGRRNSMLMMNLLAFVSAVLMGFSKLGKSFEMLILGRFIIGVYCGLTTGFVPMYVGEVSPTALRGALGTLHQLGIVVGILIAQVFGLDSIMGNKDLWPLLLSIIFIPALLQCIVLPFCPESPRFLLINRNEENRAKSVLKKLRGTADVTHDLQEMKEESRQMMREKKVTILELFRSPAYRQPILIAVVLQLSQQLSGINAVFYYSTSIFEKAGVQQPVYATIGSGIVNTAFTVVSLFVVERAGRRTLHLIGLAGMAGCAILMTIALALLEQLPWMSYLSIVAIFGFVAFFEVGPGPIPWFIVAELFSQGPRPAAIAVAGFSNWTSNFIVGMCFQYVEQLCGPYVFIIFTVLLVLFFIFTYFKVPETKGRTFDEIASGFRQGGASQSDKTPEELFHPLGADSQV
Assay: [3H]-deoxy-D-glucose uptake assay, GLUT1
Assay type: cell-based
Details: [3H]-deoxy-D-glucose uptake in HEK293 cells stably expressing human GLUT1
Procedure: HEK293 cells were engineered to stably express either human GLUT1, GLUT2, GLUt3 or GLUT4 by transfection with the pReceiver-Lv105 plasmid, containing either hGLUT1, hGLUT2, hGLUT3, or hGLUT4 gene constructs with lipofectamine 2000, hGLUT1- hGLUT2- hGLUT3- or hGLUT4-overexpressing polyclonal populations were isolated under purinomycin selective pressure (1 μg/ml) and maintained in Dulbecco's modified Eagle's medium supplemented with 1 μg/ml purinomycin+10% foetal bovine serum (FBS).
60,000 cells per well were seeded overnight into poly-D-lysine coasted 96-well plates. […] 90 μl of test compounds were added in glucose-free uptake buffer and cells were incubated at 37° C. for 30 min.
Cells were then washed twice with ice-cold PBS and 100 μl of Microscint-20 was added per well. Glucose uptake was quantified with a scintillation counter. The half maximal inhibitory concentration (IC50) (a measure of the effectiveness of the test compound in inhibiting glucose uptake) was determined.

GLUT1 pIC50	SMILES
+++ (pIC50 ≧ 6.00)	O=C(c1cccnc1)N1CCN(Cc2c(-c3ccc(Cl)cc3)nc3ccc(-c4ccccc4)cn23)CC1 [Compound 145]
+++ (pIC50 ≧ 6.00)	O=C(c1ccncc1)N1CCN(Cc2c(-c3ccc(Cl)cc3)nc3ccc(-c4ccccc4)cn23)CC1 [Compound 152]
+− (pIC50 < 4.00)	FC(F)(F)Oc1ccccc1-c1ccc2nc(-c3ccc(Cl)cc3)c(CN3CCOCC3)n2c1 [Compound 153]
++ (pIC50 5.00-5.99)	Cc1ccc(-c2nc3ccc(-c4ccccc4)cn3c2CN2CCOCC2)cc1 [Compound 157]
+ (pIC50 4.00-4.99)	Clc1ccc(-c2nc3ccc(Oc4ccccc4)cn3c2CN2CCOCC2)cc1 [Compound 158]
+++ (pIC50 ≧ 6.00)	O=C(c1cscn1)N1CCN(Cc2c(-c3ccc(Cl)cc3)nc3ccc(-c4ccccc4)cn23)CC1 [Compound 159]
+ (pIC50 4.00-4.99)	O=C1CCCN1c1ccc2nc(-c3ccc(Cl)cc3)c(CN3CCOCC3)n2c1 [Compound 162]
+ (pIC50 4.00-4.99)	CCOC(=O)c1ccc2nc(-c3ccc(Cl)cc3)c(CN3CCOCC3)n2c1 [Compound 163]
+++ (pIC50 ≧ 6.00)	O=C(c1ccc(F)cc1)N1CCN(Cc2c(-c3ccc(Cl)cc3)nc3cnc(-c4ccccc4)cn23)CC1 [Compound 168]
++ (pIC50 5.00-5.99)	O=C(c1cccc(F)c1)N1CCCN(Cc2c(-c3ccc(Cl)cc3)nc3ccc(-c4ccccc4)cn23)CC1 [Compound 169]
++ (pIC50 5.00-5.99)	Clc1ccc(-c2nc3ccc(-c4ncon4)cn3c2CN2CCOCC2)cc1 [Compound 172]
++ (pIC50 5.00-5.99)	c1ccc(-c2ccc3nc(C4CCCCC4)c(CN4CCOCC4)n3c2)cc1 [Compound 173]
++ (pIC50 5.00-5.99)	NC(=O)CN1CCN(Cc2c(-c3ccc(Cl)cc3)nc3ccc(-c4ccccc4)cn23)CC1 [Compound 174]
++ (pIC50 5.00-5.99)	Clc1ccc(-c2nc3ccc(-c4ccccc4)cn3c2CN2CCn3ncnc3C2)cc1 [Compound 175]
++ (pIC50 5.00-5.99)	Cc1cc2nc(-c3ccc(Cl)cc3)c(CN3CCOCC3)n2cc1-c1ccccc1 [Compound 176]
+++ (pIC50 ≧ 6.00)	O=C(c1cccc(F)c1)N1CCN(Cc2c(-c3ccc(Cl)cc3)nc3ccc(C4CC4)cn23)CC1 [Compound 178]
+− (pIC50 < 4.00)	Clc1ccc(-c2nc3ccc(-c4nnn[nH]4)cn3c2CN2CCOCC2)cc1 [Compound 180]
+++ (pIC50 ≧ 6.00)	O=C(c1cnccn1)N1CCN(Cc2c(-c3ccc(Cl)cc3)nc3ccc(-c4ccccc4)cn23)CC1 [Compound 181]
+− (pIC50 < 4.00)	O=C(O)C1CCN(Cc2c(-c3ccc(Cl)cc3)nc3ccc(-c4ccccc4)cn23)CC1 [Compound 182]
+++ (pIC50 ≧ 6.00)	O=C(c1ccc(Cl)cc1)N1CCN(Cc2c(-c3ccc(Cl)cc3)nc3ccc(-c4ccccc4)cn23)CC1 [Compound 183]
+++ (pIC50 ≧ 6.00)	O=C(c1cncs1)N1CCN(Cc2c(-c3ccc(Cl)cc3)nc3ccc(-c4ccccc4)cn23)CC1 [Compound 184]
++ (pIC50 5.00-5.99)	O=C(c1cccc(Cl)c1)N1CCN(Cc2c(-c3ccc(Cl)cc3)nc3ccc(-c4ccccc4)cn23)CC1 [Compound 185]
+++ (pIC50 ≧ 6.00)	CC(=O)N1CCN(Cc2c(-c3ccc(Cl)cc3)nc3cnc(-c4ccccc4)cn23)CC1 [Compound 186]
++ (pIC50 5.00-5.99)	Clc1ccc(-c2nc3ccc(-c4ccccc4)cn3c2CNC2CCOCC2)cc1 [Compound 188]
+++ (pIC50 ≧ 6.00)	COc1cccc(-c2nc3ccc(-c4ccccc4F)cn3c2CN2CCN(C(=O)C3CCC3)CC2)c1 [Compound 189]
+++ (pIC50 ≧ 6.00)	COc1cccc(-c2nc3ccc(-c4ccccc4Cl)cn3c2CN2CCN(C(=O)C3CCC3)CC2)c1 [Compound 190]
+++ (pIC50 ≧ 6.00)	COc1cccc(-c2nc3ccc(-c4ccccc4C#N)cn3c2CN2CCN(C(=O)C3CCC3)CC2)c1 [Compound 191]

GLUT1 pIC50	SMILES
++ (pIC50 5.00-5.99)	COc1cccc(-c2nc3ccc(-c4ccccc4C(N)=O)cn3c2CN2CCN(C(=O)C3CCC3)CC2)c1 [Compound 192]
+++ (pIC50 ≧ 6.00)	N#Cc1cccc(C(=O)N2CCN(Cc3c(-c4ccc(Cl)cc4)nc4ccc(-c5ccccc5)cn34)CC2)c1 [Compound 193]
++ (pIC50 5.00-5.99)	CC(=O)N1CCN(Cc2c(-c3ccc(Cl)cc3)nc3ccc(C4CC4)cn23)CC1 [Compound 194]
++ (pIC50 5.00-5.99)	CCC(=O)N1CCN(Cc2c(-c3ccc(Cl)cc3)nc3ccc(C4CC4)cn23)CC1 [Compound 195]
+++ (pIC50 ≧ 6.00)	O=C(c1ccncc1)N1CCN(Cc2c(-c3ccc(Cl)cc3)nc3ccc(C4CC4)cn23)CC1 [Compound 196]
+ (pIC50 4.00-4.99)	NC1CCN(Cc2c(-c3ccc(Cl)cc3)nc3ccc(-c4ccccc4)cn23)CC1 [Compound 197]
+ (pIC50 4.00-4.99)	CN(C)C(=O)CNCc1c(-c2ccc(Cl)cc2)nc2ccc(-c3ccccc3)cn12 [Compound 198]
++ (pIC50 5.00-5.99)	FC(F)(F)c1nnc2n1CCN(Cc1c(-c3ccc(Cl)cc3)nc3ccc(-c4ccccc4)cn13)C2 [Compound 199]
+++ (pIC50 ≧ 6.00)	O=C(C1CCOCC1)N1CCN(Cc2c(-c3ccc(Cl)cc3)nc3ccc(-c4ccccc4)cn23)CC1 [Compound 200]
+++ (pIC50 ≧ 6.00)	O=C(C1CCC1)N1CCN(Cc2c(-c3ccc(Cl)cc3)nc3ccc(-c4ccccc4Cl)cn23)CC1 [Compound 201]
+++ (pIC50 ≧ 6.00)	O=C(C1CCC1)N1CCN(Cc2c(-c3ccc(Cl)cc3)nc3ccc(-c4ccccc4F)cn23)CC1 [Compound 202]
++ (pIC50 5.00-5.99)	Clc1ccc(-c2nc3ccc(Cc4ccccc4)cn3c2CN2CCOCC2)cc1 [Compound 203]
++ (pIC50 5.00-5.99)	COc1cccc(-c2nc3ccc(Br)cn3c2CN2CCN(C(=O)C3CCC3)CC2)c1 [Compound 205]
++ (pIC50 5.00-5.99)	Clc1ccc(-c2nc3ccc(-c4ccccc4)cn3c2CN2CCOCC2)cc1Cl [Compound 206]
+++ (pIC50 ≧ 6.00)	COc1cccc(-c2nc3ccc(C4CC4)cn3c2CN2CCN(C(=O)C3CCC3)CC2)c1 [Compound 207]
+− (pIC50 < 4.00)	COc1cccc(-c2nc3ccccn3c2CN2CCN(C(=O)C3CCC3)CC2)c1 [Compound 208]
++ (pIC50 5.00-5.99)	CC(=O)NC1CCN(Cc2c(-c3ccc(Cl)cc3)nc3ccc(-c4ccccc4)cn23)CC1 [Compound 210]
+− (pIC50 < 4.00)	CCOC(=O)CN1CCN(Cc2c(-c3ccc(Cl)cc3)nc3ccc(-c4ccccc4)cn23)CC1 [Compound 211]
+++ (pIC50 ≧ 6.00)	O=C(c1ccnnc1)N1CCN(Cc2c(-c3ccc(Cl)cc3)nc3ccc(-c4ccccc4)cn23)CC1 [Compound 212]
+++ (pIC50 ≧ 6.00)	N#Cc1ccccc1-c1ccc2nc(-c3ccc(Cl)cc3)c(CN3CCN(C(=O)C4CCC4)CC3)n2c1 [Compound 213]
++ (pIC50 5.00-5.99)	CS(=O)(=O)Nc1ccc2nc(-c3ccc(Cl)cc3)c(CN3CCOCC3)n2c1 [Compound 215]
+++ (pIC50 ≧ 6.00)	C=C(C)c1cn2c(CN3CCOCC3)c(-c3ccc(Cl)cc3)nc2cn1 [Compound 216]
+++ (pIC50 ≧ 6.00)	COCC(=O)N1CCN(Cc2c(-c3ccc(Cl)cc3)nc3ccc(-c4ccccc4C#N)cn23)CC1 [Compound 218]
+++ (pIC50 ≧ 6.00)	CCC(=O)N1CCN(Cc2c(-c3ccc(Cl)cc3)nc3ccc(-c4ccccc4C#N)cn23)CC1 [Compound 219]
+++ (pIC50 ≧ 6.00)	N#Cc1ccccc1-c1ccc2nc(-c3ccc(Cl)cc3)c(CN3CCN(C(=O)c4ccncc4)CC3)n2c1 [Compound 220]
+++ (pIC50 ≧ 6.00)	N#Cc1ccccc1-c1ccc2nc(-c3ccc(Cl)cc3)c(CN3CCN(C(=O)c4cnccn4)CC3)n2c1 [Compound 221]
+− (pIC50 < 4.00)	O=C(O)CN1CCN(Cc2c(-c3ccc(Cl)cc3)nc3ccc(-c4ccccc4)cn23)CC1 [Compound 223]

SMILES	GLUT1 pIC50
COc1ccc2nc(-c3ccc(Cl)cc3)c(CN3CCOCC3)n2c1 [Compound 154]	+ (pIC50 4.00-4.99)
Clc1ccc(-c2nc3ccc(C4=CCCC4)cn3c2CN2CCOCC2)cc1 [Compound 177]	+ (pIC50 4.00-4.99)
N#Cc1ccc2nc(-c3ccc(Cl)cc3)c(CN3CCOCC3)n2c1 [Compound 179]	+− (pIC50 < 4.00)
CC(=O)Nc1ccc2nc(-c3ccc(Cl)cc3)c(CN3CCOCC3)n2c1 [Compound 204]	+− (pIC50 < 4.00)
Cc1cn2c(CN3CCOCC3)c(-c3ccc(Cl)cc3)nc2cn1 [Compound 209]	+− (pIC50 < 4.00)
